The target of this experiment is T1, NA of influenza A/PuertoRico/8/1934 (H1N1) virus (Influenza A virus (A/Puerto Rico/8/1934(H1N1)), UniProt P03468).
T1 construct: native viral NA in allantoic fluid of infected embryonated chicken eggs (whole virus, not purified)
Briefly: fluorescence NA inhibition assay with MU-NANA. Format: biochemical. Particulars: MU-NANA substrate (30 μl of 80 μM in 100 μl); 10 min preincubation, 30 min reaction, 37 °C; virus-containing allantoic fluid.

Broadly, the IC50 is the concentration needed to halve the response being measured. The low end stands for greater potency in that assay, the high end for weaker potency in that assay.

T1 sequence (P03468 whole entry): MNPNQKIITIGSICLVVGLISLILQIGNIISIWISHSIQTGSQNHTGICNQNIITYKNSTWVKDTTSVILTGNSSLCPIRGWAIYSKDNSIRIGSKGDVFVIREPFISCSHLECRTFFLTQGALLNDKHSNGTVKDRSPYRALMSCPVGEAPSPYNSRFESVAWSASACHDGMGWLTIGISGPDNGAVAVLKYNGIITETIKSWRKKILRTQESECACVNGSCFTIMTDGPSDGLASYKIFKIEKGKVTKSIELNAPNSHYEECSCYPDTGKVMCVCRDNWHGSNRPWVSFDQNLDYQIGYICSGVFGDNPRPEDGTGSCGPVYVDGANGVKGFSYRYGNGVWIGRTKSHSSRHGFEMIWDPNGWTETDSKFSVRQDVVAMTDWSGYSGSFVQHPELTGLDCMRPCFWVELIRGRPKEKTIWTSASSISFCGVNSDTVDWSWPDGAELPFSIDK

With `O=C(/C=C/c1ccc(O)c(O)c1)O[C@@H]1C[C@](O)(C(=O)O)C[C@@H](O)[C@H]1O` [CHA, chlorogenic acid], the IC50 came to 22.1 ± 1.07 µM.

The values are drawn from article PMC5385491, “Antiviral activity of chlorogenic acid against influenza A (H1N1/H3N2) virus and its inhibition of neuraminidase” (Scientific Reports, 2017).
